Experimental data as given in PubChem BioAssay AID602234 (The Scripps Research Institute Molecular Screening Center, 2012).
The source made the active and inactive calls. How the calls were made is not given here.

Test: NCOA3 reporter inhibition potency – cell-based, luminescence, counter-screen for SRC1 inhibitor project, dose response (AID 602234);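 further: HEK293 cells co-transfected with pGL4.31 reporter and pBIND-SRC3 fusion vector; potency for inhibition of reporter luminescence with Gossypol as full inhibition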
Settings: transfected HEK293 cells, counter-screen luciferase reporter

| SMILES | IC50 |
| --- | --- |
| O=C(CCn1cnc(-c2ccccc2)c1-c1ccccc1)N/N=C/c1ccccc1O | 12.2 µM (inactive) |
| Cc1ccc(O)c(C(=O)c2cnn(C(=O)COc3ccc(Cl)cc3)c2)c1 | 7.96 µM |
| CCN(CC)CCNC(=O)c1ccc(NC(=O)C2CCN(c3ncnc4sc(C)c(C)c34)CC2)cc1 | 3.94 µM |
| Cc1cccc(C)c1-c1ccc(CN2C(CC(C)C)C(=O)N(Cc3cn(CC4CCCCC4)nn3)CCS2(=O)=O)cc1 (stereo not given) | 8.2 µM |
| Cc1nc(N2CCC(C(N)=O)CC2)c2c(-c3cccs3)csc2n1 | 3.31 µM |
| COc1ccc(NC(=O)CN(C)C(=O)C2(c3ccccc3)CCCC2)cc1 | 5.39 µM |
| COc1ccc2ncn(-c3ccccc3)c2c1 | 2.99 µM |
| CCc1ccc(/C=C2\SC(=S)N(CCCC(=O)NCCCN3CCOCC3)C2=O)cc1 | 3.28 µM |
| COc1ccc(-n2cnc3c(sc4nccc(N(C)C)c43)c2=O)cc1 | 11 µM (inactive) |
| C=CCc1ccccc1OCC(=O)N/N=C/c1ccc(OC(C)=O)cc1OC(C)=O | 22.4 µM (inactive) |
| CC1(C)Cc2c(ccc3ccccc23)C(=O)N1 | 3.21 µM |
| CCn1ccnc1CN(C)Cc1cn[nH]c1-c1ccc(F)cc1F | 8.02 µM |
| c1cc2[nH]snc2c2nc(C3CC3)nc12 | 1.2 µM |
| COc1cccc(/C=N/NC(=O)C(=O)Nc2ccccc2OC(F)(F)C(F)F)c1O | 5.65 µM |
| O=C(COC(=O)c1ccc[nH]c1=O)Nc1ccc(N2CCCCC2)cc1 | 5.35 µM |
| COc1cccc(/C=N/NC(=O)CNC(=O)C2COc3ccccc3O2)c1O (stereo not given) | 4.31 µM |
| Oc1ccc(C=NNc2ccccn2)c(O)c1 | 6.53 µM |
| Cc1nc2c(-c3ccc(F)cc3)cnn2c(N)c1-c1ccccc1 | 11.4 µM (inactive) |
| COc1ccc(Nc2ncnc3ccc(C)cc23)cc1 | 2.62 µM |
| C=C1C(=O)[C@@]23C[C@H]4[C@@H]5[C@@]6(C)CCC[C@@]57[C@@H]2[C@@H](O)[C@@H]1C[C@H]3[C@H]7N4C6 | 4.39 µM |
| CC(C)n1c(-c2cccnc2)nc2cnccc21 | 5.26 µM |
| CCOC(=O)c1cccc2c1-c1ccccc1/C2=N/O | 3.73 µM |
| CCN(C(=O)c1cc(S(=O)(=O)N2CCCCC2)c[nH]1)c1ccc(OC)cc1 | 8 µM |

| SMILES | IC50 |
| --- | --- |
| O=C(c1ccncc1)N(Cc1cc2ccccc2[nH]c1=O)C1CCCCC1 | 5.34 µM |
| COC(CN(C(=O)CCl)C(C(=O)NC1CCCCC1)c1ccccc1C)OC (stereo not given) | 3.76 µM |
| COc1cccc(CNc2ncnc3ccc(-c4c(C)noc4C)cc23)c1 | 9.92 µM |
| O=C(CCl)N(c1ccccc1)C1CCS(=O)(=O)C1 (stereo not given) | 1.74 µM |
| O=C1CCC2S/C(=C/Nc3ccc(C(F)(F)F)cc3)C(=O)N12 (stereo not given) | 7.25 µM |
| CC1CCCCN1c1ncnc2ccccc12 (stereo not given) | 8.39 µM |
| S=C(Nc1ccccc1)Nc1ccc(OCc2ccc(Cl)cc2Cl)cc1 | 1.39 µM |
| NNC(=O)c1cc2ccccc2cc1O | 1.57 µM |
| CN(C)c1ccc(Nc2ncnc3ccc(Br)cc23)cc1 | 2.09 µM |
| Cc1ccc(S(=O)(=O)Nc2c(NC3CCCCC3)c3ccccc3oc2=O)c(C)c1 | 23.1 µM (inactive) |
| CCOc1cc(C(N)=O)cc(Br)c1OC | 6.86 µM |
| CCC(C)(C)n1nnnc1CN1CCC(n2c(C)nc3cc(C(F)(F)F)ccc32)CC1 | > 35.9 µM (inactive) |
| O=C(CCl)N1N=C(c2ccco2)CC1c1cccs1 (stereo not given) | 0.694 µM |
| O=C(Nc1ccncc1)c1ccccc1[N+](=O)[O-] | 4.77 µM |
| COc1cccc(C2=CC(=O)CC(C)(C)C2)c1 | 6.27 µM |
| O=C(Nc1cccc(C(F)(F)F)c1)Nc1nnc([C@@H]2C[C@H](O)[C@@H](CO)O2)s1 | 4.17 µM |
| CN1CCN(c2cccc3c2C(=O)c2ccccc2C3=O)CC1 | > 35.9 µM (inactive) |
| CCCS(=O)(=O)Nc1ccc(Nc2c3ccccc3nc3ccccc23)c(OC)c1 | 1.01 µM |
| O=C(CCCc1nc(-c2ccccc2Cl)no1)NC1CCCC1 | 3.59 µM |
| CC(NC(=O)COC(=O)c1cccs1)c1ccccc1 (stereo not given) | > 35.9 µM (inactive) |
| O=C(CCCOc1ccc(Cl)cc1Cl)N/N=C/c1ccccc1O | 6.32 µM |
| CNc1ncnc(Sc2nc(N)nc3nc[nH]c23)c1[N+](=O)[O-] | 2.81 µM |
